Molecular target: PIK3CA (human) (UniProt P42336)
Test: Assessment of PIK3CA Kinase Activity

Chain of PIK3CA (human) (P42336 whole entry, looked up): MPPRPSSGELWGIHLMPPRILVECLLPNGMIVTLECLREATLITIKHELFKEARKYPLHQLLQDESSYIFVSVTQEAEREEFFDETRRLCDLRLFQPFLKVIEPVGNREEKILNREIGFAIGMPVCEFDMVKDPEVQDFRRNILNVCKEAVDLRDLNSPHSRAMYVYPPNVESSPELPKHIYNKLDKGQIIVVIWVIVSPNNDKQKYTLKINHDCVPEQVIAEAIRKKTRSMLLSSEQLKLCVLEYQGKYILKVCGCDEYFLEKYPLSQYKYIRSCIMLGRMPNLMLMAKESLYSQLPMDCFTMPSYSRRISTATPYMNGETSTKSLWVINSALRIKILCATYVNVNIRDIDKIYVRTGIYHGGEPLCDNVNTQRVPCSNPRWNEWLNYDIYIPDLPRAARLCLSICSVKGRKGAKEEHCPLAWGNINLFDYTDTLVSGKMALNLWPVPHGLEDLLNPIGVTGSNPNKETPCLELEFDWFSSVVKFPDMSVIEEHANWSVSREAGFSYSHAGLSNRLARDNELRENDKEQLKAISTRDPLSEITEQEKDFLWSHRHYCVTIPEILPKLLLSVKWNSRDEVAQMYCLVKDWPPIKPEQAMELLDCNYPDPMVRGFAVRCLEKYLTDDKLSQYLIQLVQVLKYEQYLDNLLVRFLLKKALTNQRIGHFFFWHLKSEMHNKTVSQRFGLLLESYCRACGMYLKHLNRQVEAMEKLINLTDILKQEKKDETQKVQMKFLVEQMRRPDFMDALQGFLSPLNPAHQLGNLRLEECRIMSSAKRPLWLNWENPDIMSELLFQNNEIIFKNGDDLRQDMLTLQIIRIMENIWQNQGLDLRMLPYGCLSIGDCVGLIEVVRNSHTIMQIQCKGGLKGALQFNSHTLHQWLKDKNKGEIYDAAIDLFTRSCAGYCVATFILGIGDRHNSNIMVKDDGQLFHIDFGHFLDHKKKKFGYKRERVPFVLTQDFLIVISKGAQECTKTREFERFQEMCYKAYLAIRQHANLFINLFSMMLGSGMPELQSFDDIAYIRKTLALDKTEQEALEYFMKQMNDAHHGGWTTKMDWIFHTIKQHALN

Structure (SMILES)	IC50
Cc1nc2ccc(-c3cc(C)c4c(c3)CN(c3nc(CN(C)C)nc(C)c3C(C)C)CCO4)cc2[nH]1	≤ 0.1 µM
Cc1cc(-c2cnc3sc(N)nc3c2)cc2c1OCCN(c1nc(CF)nc(C)c1C(C)C)C2	≤ 0.1 µM
Cc1cc(-c2cnc3sc(N)nc3c2)cc2c1OCCN(c1ncnc(C)c1C(C)C)C2	≤ 0.1 µM
C=C(C)c1c(C)nc(N)nc1N1CCOc2c(C)cc(-c3cnc4sc(N)nc4c3)cc2C1	≤ 0.1 µM
CNCc1nc(C)c(C(C)C)c(N2CCOc3c(C)cc(-c4cnc5sc(N)nc5c4)cc3C2)n1	≤ 0.1 µM
COCCc1nc(C)c(C(C)C)c(N2CCOc3c(C)cc(-c4cnc5sc(N)nc5c4)cc3C2)n1	≤ 0.1 µM
C=CCc1c(C)nc(N)nc1N1CCOc2c(C)cc(-c3cnc4sc(N)nc4c3)cc2C1	≤ 0.1 µM
Cc1cc(-c2ccc(-c3ncc[nH]3)cc2)cc2c1OCCN(c1nc(N)nc(C)c1C(C)C)C2	0.1 to 0.5 µM
Cc1cc(-c2nnc(N)s2)cc2c1OCCN(c1ncnc(C)c1C(C)C)C2	≤ 0.1 µM
Cc1cc(-c2cnc3sc(N)nc3c2)cc2c1OCCN(c1nc(CN(C)C)nc(Cl)c1C(C)C)C2	≤ 0.1 µM
Cc1cc(-c2cnc3sc(N)nc3c2)cc2c1OCCN(c1ncccc1C(N)=O)C2	0.1 to 0.5 µM
CCc1c(C)nc(CN(C)C)nc1N1CCOc2c(C)cc(-c3cnc4sc(N)nc4c3)cc2C1	≤ 0.1 µM
Cc1cc(-c2cnn(C)c2)cc2c1OCCN(c1nc(N)nc(C)c1C(C)C)C2	0.1 to 0.5 µM
Cc1cc(-c2cnc(N)c(S(N)(=O)=O)c2)cc2c1OCCN(c1nc(N)nc(C)c1C(C)C)C2	≤ 0.1 µM
Cc1cc(-c2cnc3sc(N)nc3c2)cc2c1OCCN(c1nc(CNCC(F)F)nc(C)c1C(C)C)C2	≤ 0.1 µM
Cc1cc(-c2cnc3sc(N)nc3c2)cc2c1OCCN(c1nc(N)nc(C)c1-c1cccc(F)c1)C2	≤ 0.1 µM
Cc1ncc(C)c(N2CCOc3c(C)cc(-c4nnc(N)s4)cc3C2)n1	0.1 to 0.5 µM
Cc1cc(-c2cnc3sc(N)nc3c2)cc2c1OCCN(c1nc(CN(C)C(C)(C)C)nc(C)c1C(C)C)C2	≤ 0.1 µM
Cc1cc(-c2cnc3sc(N)nc3c2)cc2c1OCCN(c1ccc(C#N)cn1)C2	0.1 to 0.5 µM
CC(=O)NCc1nc(C)c(C(C)C)c(N2CCOc3c(C)cc(-c4cnc5sc(N)nc5c4)cc3C2)n1	≤ 0.1 µM
Cc1nc(N)nc(N2CCOc3ccc(-c4cnc5sc(N)nc5c4)cc3C2)c1C(C)C	≤ 0.1 µM
COc1cc(-c2cnc3sc(N)nc3c2)cc2c1OCCN(c1nc(CN(C)C)nc(C)c1C(C)C)C2	≤ 0.1 µM
Cc1cc(-c2cnc(Cl)c(NS(C)(=O)=O)c2)cc2c1OCCN(c1nc(N)nc(C)c1C(C)C)C2	≤ 0.1 µM

Structure (SMILES)	IC50
Cc1cc(-c2nnc(N)s2)cc2c1OCCN(c1nc(CN(C)CC(F)F)nc(C)c1C(C)C)C2	≤ 0.1 µM
Cc1nc(C)c(C(C)C)c(N2CCOc3c(C)cc(-c4nnc(N)s4)cc3C2)n1	≤ 0.1 µM
CCc1c(Cl)nc(CN(C)C)nc1N1CCOc2c(C)cc(-c3cnc4sc(N)nc4c3)cc2C1	≤ 0.1 µM
Cc1ncc(C(C)C)c(N2CCOc3c(C)cc(-c4cnc5sc(N)nc5c4)cc3C2)n1	≤ 0.1 µM
CCc1nc(N)nc(N2CCOc3c(C)cc(-c4cnc5sc(N)nc5c4)cc3C2)c1C(C)C	≤ 0.1 µM
Cc1cc(-c2cnc3sc(N)nc3c2)cc2c1OCCN(c1nc(CO)nc(C)c1C(C)C)C2	≤ 0.1 µM
Cc1cc(-c2cnc3sc(N)nc3c2)cc2c1OCCN(c1nc(C3CNC3)nc(C)c1C(C)C)C2	≤ 0.1 µM
Cc1cc(-c2ccc(N)nc2)cc2c1OCCN(c1nc(N)nc(C)c1C(C)C)C2	0.1 to 0.5 µM
COc1ncc(-c2cc(C)c3c(c2)CN(c2nc(N)nc(C)c2C(C)C)CCO3)cn1	≤ 0.1 µM
Cc1cc(-c2cnc3sc(N)nc3c2)cc2c1OCCN(c1nc(C3CCCN3)nc(C)c1C(C)C)C2 (stereo unspecified)	≤ 0.1 µM
Cc1cnccc1N1CCOc2c(C)cc(-c3cnc4sc(N)nc4c3)cc2C1	≤ 0.1 µM
C=Cc1c(C)nc(N)nc1N1CCOc2c(C)cc(-c3nnc(N)s3)cc2C1	≤ 0.1 µM
Cc1cc(-c2nnc(N)s2)cc2c1OCCN(c1nc(CNCC(F)F)nc(C)c1C(C)C)C2	≤ 0.1 µM
COCCc1c(C)nc(CN2CCCC2)nc1N1CCOc2c(C)cc(-c3cnc4sc(N)nc4c3)cc2C1	≤ 0.1 µM
Cc1cc(-c2cnc3nc[nH]c3c2)cc2c1OCCN(c1nc(N)nc(C)c1C(C)C)C2	≤ 0.1 µM
Cc1cc(-c2cnc3sc(N)nc3c2)cc2c1OCCN(c1nc(N3CC(O)C3)nc(C)c1C(C)C)C2	≤ 0.1 µM
Cc1cc(-c2cnc3sc(N)nc3c2)cc2c1OCCN(c1nc(CN(C)C)ncc1CC(F)(F)F)C2	0.1 to 0.5 µM
Cc1nc2c(c(N3CCOc4c(C)cc(-c5cnc6sc(N)nc6c5)cc4C3)n1)CC(C)(C)CC2	≤ 0.1 µM
COc1cc(-c2cnc3sc(N)nc3c2)cc2c1OCCN(c1nc(N)nc(C)c1C(C)C)C2	≤ 0.1 µM
Cc1cc(-c2ccnc(F)c2)cc2c1OCCN(c1nc(N)nc(C)c1C(C)C)C2	≤ 0.1 µM
C#CCc1c(C)nc(C)nc1N1CCOc2c(C)cc(-c3cnc4sc(N)nc4c3)cc2C1	≤ 0.1 µM
COc1nc(C)c(C(C)C)c(N2CCOc3c(C)cc(-c4cnc5sc(N)nc5c4)cc3C2)n1	≤ 0.1 µM
Cc1cc(-c2cnc3sc(N)nc3c2)cc2c1OCCN(c1nc(CC#N)nc(C)c1C(C)C)C2	≤ 0.1 µM

From the Kinase Knowledgebase extract (Sharma et al. 2016)
